Read-outs that look alike come from different tables or passages of the source.
How the values were obtained:
[1] = biological target: T1, recombinant human LTA4 hydrolase (rhLTA4H) (Homo sapiens, UniProt P09960); assay: Recombinant human LTA4 hydrolase assay for LTA4 hydrolase inhibitor activity; details: for IC50: Recombinant Human LTA4 Hydrolase Assay IC50 LTA4H
T1 sequence (P09960 1-611): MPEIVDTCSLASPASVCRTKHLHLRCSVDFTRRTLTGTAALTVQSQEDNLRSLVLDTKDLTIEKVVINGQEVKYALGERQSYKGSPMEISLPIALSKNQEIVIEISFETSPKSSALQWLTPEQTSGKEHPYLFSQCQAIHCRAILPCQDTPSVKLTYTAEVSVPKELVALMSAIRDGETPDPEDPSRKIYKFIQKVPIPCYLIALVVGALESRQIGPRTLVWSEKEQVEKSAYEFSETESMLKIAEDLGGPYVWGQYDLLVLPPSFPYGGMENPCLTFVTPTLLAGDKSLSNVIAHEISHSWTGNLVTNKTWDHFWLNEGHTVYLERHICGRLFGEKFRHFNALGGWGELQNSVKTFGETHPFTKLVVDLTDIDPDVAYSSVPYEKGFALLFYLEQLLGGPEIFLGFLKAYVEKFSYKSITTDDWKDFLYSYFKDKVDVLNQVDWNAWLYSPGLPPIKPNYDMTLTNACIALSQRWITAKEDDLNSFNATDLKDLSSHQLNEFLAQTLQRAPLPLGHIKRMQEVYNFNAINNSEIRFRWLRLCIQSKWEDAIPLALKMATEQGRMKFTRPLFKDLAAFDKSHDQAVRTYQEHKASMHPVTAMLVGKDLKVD

[2] = test system: LTB4 production in mouse blood (LTA4 hydrolase); assay: Ex vivo LTB4 production by calcium ionophore stimulated mouse blood after oral dosing; format: in vivo
Protocol: Ex Vivo LTB4 and Thromboxane Production by Calcium Ionophore Stimulated Mouse Blood for LTA4 Hydrolase Inhibitor Activity
Leukotriene A4 hydrolase inhibitor compounds of the present invention were diluted to a predetermined concentration in phosphate buffered saline containing 2% DMSO and 1% Tween 80. The compounds were administered by oral gavage to adult male outbred mice weighing approximately 20-30 gm at a dose of 10 mg/kg body weight. (Compounds given at a dose of 50 mg/kg body weight are designtated in following Table by the symbol, *.) Sixty (60) minutes after administration of an LTA4 inhibitor compound of the invention, blood was collected (into heparin-containing tubes) from the retroorbital sinus. […] The mixture was incubated for 10 minutes at 37° C. in a humidified incubator. The reaction was terminated by centrifugation (833 g, 10 minutes at 4° C.). Supernatants were analyzed for LTB4 and thromboxane by commercially available enzyme-linked immunoassays (Caymen Chemical Co., Ann Arbor, Mich.] in accordance with the manufacturer's instructions. The percent inhibition was determined by comparison to animals treated identically except that the solution admininstered by oral gavage was devoid of inhibitor compound.

[3] = mouse, oral gavage, 1 hour after administration of 10 mg/kg; read-out: Murine Ex Vivo LTB4 Inhibition % I LTB4
[4] = Mus musculus, po, 1 h, read-out: Murine Ex Vivo LTB4 Inhibition % I LTB4
[5] = Mus musculus, po, 1 h; read-out: Murine Ex Vivo LTB4 Inhibition % I LTB4

IC50 ([1]; recombinant hLTA4H) [µM]	SMILES	inhibition in vivo at 10 mg/kg [2, 3] [%]	also measured
0.06	CC(=O)N[C@@H]1CCN(CCOc2ccc(Cc3ccccc3)cc2)[C@@H](C)C1 (relative stereo) [Example 467]	71	
0.14	c1ccc(Cc2ccc(OCCCn3cnc4ncccc43)cc2)cc1 [341 B]	29	
1.9	c1ccc(COc2ccc(OCCn3cnc4ncccc43)cc2)cc1 [346 B]	23	
1.9	c1ccc(COc2ccc(OCCn3cnc4cnccc43)cc2)cc1 [347 B]	43	
4.6	c1ccc(Oc2ccc(OCCn3cnc4cccnc43)cc2)cc1 [348 A]	42	
0.44	c1ccc(Oc2ccc(OCCn3cnc4ncccc43)cc2)cc1 [348 B]	22	
0.29	c1ccc(Oc2ccc(OCCn3cccc4ncnc3-4)cc2)cc1 [348 C]	77	
0.3	c1ccc(Oc2ccc(OCCn3cnc4cnccc43)cc2)cc1 [349 B]	48	
0.013	c1ccc(Oc2ccc(OCCn3ccc4ncnc-4c3)cc2)cc1 [349 C]	52	
0.55	c1ccc(Oc2ccc(OCCCn3cnc4ncccc43)cc2)cc1 [350 B]	38	
0.043	c1ccc(Oc2ccc(OCCCn3ccc4ncnc-4c3)cc2)cc1 [351 C]	42	
0.28	Fc1ccc(Oc2ccc(OCCn3cnc4ncccc43)cc2)cc1 [354 B]	32	
0.48	Fc1ccc(Oc2ccc(OCCn3cccc4ncnc3-4)cc2)cc1 [354 C]	6	
1.37	Fc1ccc(Oc2ccc(OCCn3cnc4ccncc43)cc2)cc1 [355 A]	44	
0.87	Fc1ccc(Oc2ccc(OCCn3cnc4cnccc43)cc2)cc1 [355 B]	37	
0.028	Fc1ccc(Oc2ccc(OCCn3ccc4ncnc-4c3)cc2)cc1 [355 C]	48	
0.35	c1ccc(Cc2ccc(OCCCn3cnc4ccncc43)cc2)cc1 [356 A]	14	

IC50 ([1]; recombinant hLTA4H) [µM]	SMILES	inhibition in vivo at 10 mg/kg [2, 3] [%]	also measured
0.17	c1ccc(Cc2ccc(OCCCn3cnc4cnccc43)cc2)cc1 [356 B]	33	
0.1	c1ccc(Cc2ccc(OCCCn3ccc4ncnc-4c3)cc2)cc1 [356 C]	48	
12	C=CCN(CCCOc1ccc(Cc2ccccc2)cc1)CCC(=O)OCc1ccccc1 [Example 409]		
33	C=CCN(CCCCOc1ccc(Cc2ccccc2)cc1)CCC(=O)OCC [Example 410, Ethyl [[4-[4-(Phenylmethyl)phenoxyl]-butyl](2-propenyl)amino]propanoate]		
2.4	CN(CCCOc1ccc(Cc2ccccc2)cc1)CCC(=O)OCc1ccccc1 [Example 411]		
5	CCOC(=O)CCN(C)CCCCOc1ccc(Cc2ccccc2)cc1 [Example 415]		
4.3	CC(CN(C)CCCOc1ccc(Cc2ccccc2)cc1)C(=O)OCc1ccccc1 (stereo not drawn) [Example 417]		
12	CN(CCCOc1ccc(Cc2ccccc2)cc1)CC(C)(C)C(=O)OCc1ccccc1 [Example 418]		
0.41	NC(=O)CCNC(=O)C1CCN(CCOc2ccc(Cc3ccccc3)cc2)CC1 [Example 421]		
0.33	NC(=O)CCNCCCOc1ccc(Cc2ccccc2)cc1 [Example 423]		
0.3	CC1CC(C#N)CCN1CCOc1ccc(Cc2ccccc2)cc1 (stereo not drawn) [Example 444]		
0.33	CC1CC(C(N)=NO)CCN1CCOc1ccc(Cc2ccccc2)cc1 (stereo not drawn) [Example 445]		
0.14	N=C(N)C1CCN(CCOc2ccc(Cc3ccccc3)cc2)CC1 [Example 449]		
0.56	NC(=S)N1CCN(CCOc2ccc(Cc3ccccc3)cc2)CC1 [Example 458]		
84	CS(=O)(=O)N1CCN(CCOc2ccc(Cc3ccccc3)cc2)CC1 [Example 460]		
0.029	COC(=O)C1CC2CC1CN(CCOc1ccc(Cc3ccccc3)cc1)C2 (stereo not drawn) [Example 504]		

Second part, the molecule before the results:

SMILES	IC50 ([1]; recombinant hLTA4H) [µM]	inhibition in vivo at 10 mg/kg [2, 3] [%]	also measured
C[C@@H]1C[C@H](C(N)=O)CCN1CCOc1ccc(Cc2ccccc2)cc1 (relative stereo) [Example 297]	0.12	63	
C[C@H]1C[C@@H](O)CCN1CCOc1ccc(Cc2ccccc2)cc1 (relative stereo) [Example 465]	0.3	38	
c1ccc(COc2ccc(OCCn3cnc4ccncc43)cc2)cc1 [347 A]	1.8	34	
c1ccc(COc2ccc(OCCn3ccc4ncnc-4c3)cc2)cc1 [347 C]	0.005	52	
c1ccc(Oc2ccc(OCCn3cnc4ccncc43)cc2)cc1 [349 A]	0.48	78.5	
c1ccc(Oc2ccc(OCCCn3cccc4ncnc3-4)cc2)cc1 [350 C]	0.62	35	
c1ccc(Cc2ccc(OCCn3cnc4ncncc43)cc2)cc1 [357 A]			IC50 [1]: 0.047 µM; inhibition in vivo at 10 mg/kg [2, 4]: 57%
c1ccc(Oc2ccc(OCCN3CCCC3)cc2)cc1 [Example 44]			inhibition in vivo at 10 mg/kg [2, 4]: 25%
c1nc(Cc2ccc(OCCN3CCCC3)cc2)cs1 [Example 49, 4-[[4-[2-(1-pyrrolidinyl)ethoxy]phenyl]methyl]thiazole]			inhibition in vivo at 10 mg/kg [2, 4]: 46%
FC(F)(c1ccccc1)c1ccc(OCCN2CCCC2)cc1 [Example 67, 1-[2-[4-[(difluoro)phenylmethyl]phenoxy]ethyl]pyrrolidine]			Murine Ex Vivo LTB4 Inhibition % I LTB4 ([2]; mouse, oral gavage, 1 hour after administration of 10 mg/kg): 0%
c1ccc(Cc2ccc(OCCN3CCCC3)nc2)cc1 [Example 112]			inhibition in vivo at 50 mg/kg [2, 4]: 82%
c1csc(Cc2ccc(OCCN3CCCC3)cc2)n1 [Example 121]			inhibition in vivo at 10 mg/kg [2, 4]: 48%
c1ncc(Cc2ccc(OCCN3CCCC3)cc2)s1 [Example 122]			inhibition in vivo at 10 mg/kg [2, 4]: 57%
c1cncc(Cc2ccc(OCCN3CCCC3)cc2)c1 [Example 125]			inhibition in vivo at 10 mg/kg [2, 4]: 46%
c1cc(Cc2ccc(OCCN3CCCC3)cc2)cs1 [Example 134]			inhibition in vivo at 10 mg/kg [2, 4]: 63%
COC(=O)CC1CCN(CCOc2ccc(Cc3ccccc3)cc2)C1 (stereo not drawn) [Example 275]		75	

SMILES	IC50 ([1]; recombinant hLTA4H) [µM]	inhibition in vivo at 10 mg/kg [2, 3] [%]	also measured
COC(=O)C1CCN(CCOc2ccc(Cc3ccccc3)cc2)C1 (stereo not drawn) [Example 276]		75	
COC(=O)CC1CC2CC1CN2CCOc1ccc(Cc2ccccc2)cc1 (stereo not drawn) [Example 304]			inhibition in vivo at 10 mg/kg [2, 4]: 80%
CN(CCCOc1ccc(Cc2ccc(F)cc2)cc1)CCC(=O)O [Example 336]			inhibition in vivo at 10 mg/kg [2, 5]: 99%
c1ccc(Cc2ccc(OCCN3CCCCC3)cc2)cc1 [Example 401]			inhibition in vivo at 10 mg/kg [2, 4]: 23%
CC1CCCC(C)N1CCOc1ccc(Cc2ccccc2)cc1 (stereo not drawn) [Example 402]			inhibition in vivo at 10 mg/kg [2, 4]: 58%
C#CC(CC(=O)OCC)NCCOc1ccc(Cc2ccccc2)cc1 (stereo not drawn) [Example 408]			inhibition at 100 µM ([1]; read-out: Recombinant Human LTA4 Hydrolase Assay, % at 100 μM): 76%
CCOC(=O)CCN(C)CCCOc1ccc(Cc2ccccc2)cc1 [Example 412]		72	
CCOC(=O)CCN(CCCOc1ccc(Cc2ccccc2)cc1)Cc1cccnc1 [Example 414]	11		
CNC(=O)C1CCN(CCOc2ccc(Cc3ccccc3)cc2)CC1 [Example 420]			inhibition in vivo at 10 mg/kg [2, 5]: 93%
NC(=O)CC1CCN(CCOc2ccc(Cc3ccccc3)cc2)C1 (stereo not drawn) [Example 426]		40	
O=C(O)C1CCN(CCOc2ccc(Cc3cccc(F)c3)cc2)CC1 [Example 436]	0.72		
O=C(O)C1CCN(CCOc2ccc(Cc3ccc(F)cc3)cc2)CC1 [Example 438]	3.2		
O=C(O)C1CCN(CCOc2ccc(Cc3ccsc3)cc2)CC1 [Example 439]	18		
COC(=O)C1CC2CC1CN2CCOc1ccc(Cc2ccccc2)cc1 (stereo not drawn) [Example 440]	0.03		
c1ccc(Cc2ccc(OCCN3CCC(c4nnn[nH]4)CC3)cc2)cc1 [Example 450]			inhibition in vivo at 10 mg/kg [2, 4]: 91%

Reference: US6506876B1, “LTA4 hydrolase inhibitor pharmaceutical compositions and methods of use” (G.D. Searle & Co., priority 1994, dated 2003)
